In patent US20040138199A1, “Benzoxazines and derivatives thereof as therapeutic agents” (priority 2002, published 2004):

Biological target: T1, p101/p110γ protein (PI3Kγ) (Homo sapiens, UniProt P48736)
T1 construct: HA; made in house; host or cells: Spodoptera frugiperda (Sf9) cells, baculovirus coinfection
Test: PI3Kγ In Vitro Kinase Assay
Type: biochemical
Conditions: purified recombinant p101/p110γ with G protein β1/γ2 subunits; 20 μM ATP, 25 μM PIP2; 20 minutes at room temperature; radioactive PIP3 readout
Description: Spodtera frugiperda cells, grown in ESF921 media, were coinfected with baculovirus expressing a glu-tagged […] and baculovirus expressing an HA-tagged p110γ, at a 3:1 ratio of p110 baculovirus to p110γ baculovirus. Sf9 cells were grown to 1×10^7 total cells/mL in 10L bioreactors and harvested 48-72 hours post infection. Samples of infected cells were then tested for expression of p101/p110γ PI3 kinase by immunoprecipitation and Western Blot analysis methods (see below).
To purify PI3Kγ, 4 volumes of room temperature hypotonic lysis buffer (1 mM MgCl2, 1 mM DTT, 5 mM EGTA, 1 mM Pefabloc, 0.5 μM aprotinin, […], 2 μM pepstatin, 5 μM E64, pH 8) per gram of cell paste, was poured onto frozen cell pellets with stirring, then lysed in a nitrogen “bomb” at 400 psi (599HC T316, Parr Instrument Co, Moline, Ill.). NaCl was added to 150 mM, and sodium cholate was added to 1% and mixed for another 45 minutes. The lysates were clarified by centrifugation for 25 minutes at 14,000 rpm. The lysates were then loaded over anti-glu-linked Protein-G Sepaharose beads (Covance Research Products, Richmond, Calif.) using 20 mL resin/50 g cell paste. The column was washed with 15 volumes of wash buffer (1 mM DTT, 0.2 mM EGTA, 1 mM Pefabloc, 0.5 μM aprotinin, 5 μM leupeptin, 2 μM pepstatin, 5 μM E64, 150 mM NaCl, 1% sodium cholate, pH 8). PI3Kγ was eluted with 6 column volumes of wash buffer that contain 100 μg/mL of a peptide that competes for binding of the glu tag. The column fractions with the eluted protein (determined by taking OD280 readings) were collected and dialyzed in 0.2 mM EGTA, 1 mM DTT, 1 mM Pefabloc, 5 μM leupeptin, 0.5% sodium cholate, 150 mM NaCl, and 50% glycerol, pH 8. The fractions were stored at −80° C. until further use.
Spodtera frugiperda cells were coinfected with baculovirus expressing a glu-tagged G protein β1 and baculovirus expressing a […] at a 1:1 ratio of glu-tagged G protein β1 baculovirus to G protein β2 baculovirus. Sf9 cells are grown in 10 L bioreactors and harvested 48-72 hours post infection. Samples of infected cells were tested for G protein β1/β2 expression by Western Blot analysis, as described below. Cell lysates were homogenized and loaded onto a column of glu-tagged beads as in Biological Example 1 and competed off the column with a glu peptide as described in Biological Example 1.
The inhibitory properties of the compounds in Table 1 were assayed in an in vitro PI3K assay. In a 96-well polypropylene plate, each well was spotted with 2 μL of 50 times the desired final concentration of compound in DMSO. Purified recombinant p101/p110γ protein (0.03 μg; ˜2.7 nM) and G protein β1/γ2 subunits (0.09 μg; −57.7 nM) for each reaction was combined in the assay buffer (30 mM HEPES, 100 mM NaCl, 1 mM EGTA, and 1 mM DTT). ATP and [γ-^32P-ATP] (0.09 μCi) were added to this mixture so that the final ATP concentration in the reaction was 20 μM. Lipid micelles were formed by sonicating phosphatidylinositol-4,5-diphosphate (PIP2), phosphatidylethanolamine (PE), and Na-cholate in the assay buffer for 10 minutes, adding MgCL2 and incubating on ice for 20 minutes, for final concentrations of 25 μM PIP2, 300 μM PE, 0.02% Na-cholate, and 10 mM MgCl2 in the reaction. The reactions were started by adding equal volumes lipid and enzyme mixture in a total volume of 50 μL, allowed to run for 20 minutes at room temperature, and stopped with 100 μL 75 mM H3PO4. The lipid product was transferred to a glass fiber filter plate and washed with 75 mM H3PO4 several times. The presence of radioactive lipid product (PIP3) was measured by adding Wallac Optiphase mix to each well and counting in a Wallac 1450 Trilux plate reader (PerkinElmer Life Sciences Inc., Boston, Mass. 02118). The IC50 for each compound tested is reported in μM in Table 1: […]

T1 sequence (P48736 whole entry, species assumed): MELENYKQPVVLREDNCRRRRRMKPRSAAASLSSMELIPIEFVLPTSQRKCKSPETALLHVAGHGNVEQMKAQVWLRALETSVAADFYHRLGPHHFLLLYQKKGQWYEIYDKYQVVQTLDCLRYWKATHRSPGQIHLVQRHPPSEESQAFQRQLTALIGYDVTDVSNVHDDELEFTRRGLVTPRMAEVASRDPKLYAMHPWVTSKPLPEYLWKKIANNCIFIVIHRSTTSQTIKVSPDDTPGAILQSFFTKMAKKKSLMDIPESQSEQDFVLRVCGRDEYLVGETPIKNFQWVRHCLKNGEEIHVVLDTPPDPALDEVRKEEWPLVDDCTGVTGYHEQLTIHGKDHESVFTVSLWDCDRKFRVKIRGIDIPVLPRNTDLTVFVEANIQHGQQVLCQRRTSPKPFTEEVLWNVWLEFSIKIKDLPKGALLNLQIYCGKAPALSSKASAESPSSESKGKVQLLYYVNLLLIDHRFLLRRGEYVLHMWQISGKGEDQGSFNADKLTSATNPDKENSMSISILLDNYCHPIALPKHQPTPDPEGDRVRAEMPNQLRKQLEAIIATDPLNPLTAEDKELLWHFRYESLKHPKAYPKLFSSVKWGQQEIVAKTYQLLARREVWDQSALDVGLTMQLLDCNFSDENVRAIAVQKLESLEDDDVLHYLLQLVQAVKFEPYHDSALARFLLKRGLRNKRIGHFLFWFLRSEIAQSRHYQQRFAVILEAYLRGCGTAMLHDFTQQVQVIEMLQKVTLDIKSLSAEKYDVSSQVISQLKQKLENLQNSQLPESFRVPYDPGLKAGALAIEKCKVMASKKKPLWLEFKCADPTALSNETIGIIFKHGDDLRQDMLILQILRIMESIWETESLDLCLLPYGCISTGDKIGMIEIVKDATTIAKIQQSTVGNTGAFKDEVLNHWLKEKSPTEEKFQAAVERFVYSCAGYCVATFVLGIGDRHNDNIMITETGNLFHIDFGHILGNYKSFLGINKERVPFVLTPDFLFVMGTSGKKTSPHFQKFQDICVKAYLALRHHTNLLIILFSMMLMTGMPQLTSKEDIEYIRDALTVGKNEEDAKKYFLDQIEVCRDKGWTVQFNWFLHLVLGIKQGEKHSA
T1 sequence (Q8WYR1 whole entry partner, species assumed): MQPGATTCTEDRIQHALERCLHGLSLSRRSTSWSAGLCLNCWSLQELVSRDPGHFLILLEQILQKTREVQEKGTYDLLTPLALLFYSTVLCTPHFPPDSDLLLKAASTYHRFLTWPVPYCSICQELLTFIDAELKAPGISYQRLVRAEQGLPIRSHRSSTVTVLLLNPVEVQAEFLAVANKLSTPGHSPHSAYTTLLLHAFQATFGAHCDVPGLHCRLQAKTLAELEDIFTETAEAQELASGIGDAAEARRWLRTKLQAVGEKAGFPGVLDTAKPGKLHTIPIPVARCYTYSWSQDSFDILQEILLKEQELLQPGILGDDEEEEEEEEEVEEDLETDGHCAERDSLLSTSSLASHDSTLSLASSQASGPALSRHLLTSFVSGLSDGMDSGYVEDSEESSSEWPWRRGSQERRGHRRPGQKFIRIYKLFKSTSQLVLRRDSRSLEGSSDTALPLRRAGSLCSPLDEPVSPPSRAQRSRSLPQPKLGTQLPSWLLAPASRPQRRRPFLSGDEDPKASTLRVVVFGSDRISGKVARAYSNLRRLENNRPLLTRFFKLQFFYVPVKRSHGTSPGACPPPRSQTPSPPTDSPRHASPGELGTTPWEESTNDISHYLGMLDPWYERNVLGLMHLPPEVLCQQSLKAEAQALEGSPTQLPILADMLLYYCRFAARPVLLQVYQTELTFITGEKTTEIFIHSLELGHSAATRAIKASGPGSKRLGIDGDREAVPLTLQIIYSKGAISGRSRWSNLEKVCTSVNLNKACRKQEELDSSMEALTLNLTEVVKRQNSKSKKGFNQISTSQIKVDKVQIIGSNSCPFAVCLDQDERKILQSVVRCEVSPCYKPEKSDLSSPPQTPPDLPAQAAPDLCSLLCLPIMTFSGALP

Row | Substance | IC50
1 | 2-(4-Oxo-2-thioxo-thiazolidin-5-ylidenemethyl)-7,8-dihydro-6H-5-oxa-9-aza-benzocycloheptene-9-carboxylic acid (3,5-dimethoxy-phenyl)-amide [Example 113] | 1.32 µM
2 | 2-(4-Oxo-2-thioxo-thiazolidin-5-ylidenemethyl)-7,8-dihydro-6H-5-oxa-9-aza-benzocycloheptene-9-carboxylic acid p-tolyl ester [Example 107] | 0.704 µM
3 | 2-(4-Oxo-2-thioxo-thiazolidin-5-ylidenemethyl)-7,8-dihydro-6H-5-oxa-9-aza-benzocycloheptene-9-carboxylic acid p-tolylamide [Example 110] | 3.5 µM
4 | 2-(4-Oxo-2-thioxo-thiazolidin-5-ylidenemethyl)-7,8-dihydro-6H-5-oxa-9-aza-benzocycloheptene-9-carboxylic acid phenyl ester [Example 105] | 0.424 µM
5 | 2-Thioxo-5-{9-[3-(3-trifluoromethyl-phenyl)-acryloyl]-6,7,8,9-tetrahydro-5-oxa-9-aza-benzocyclohepten-2-ylmethylene}-thiazolidin-4-one [Example 124] | 4.01 µM
6 | 2-[2-(4-Oxo-2-thioxo-thiazolidin-5-ylidenemethyl)-7,8-dihydro-6H-5-oxa-9-aza-benzocycloheptene-9-carbonyl]-anthraquinone [Example 127] | 4.99 µM
7 | 4-(3,5-dimethyl-benzyl)-3,4-dihydro-2H-benzo[1,4]oxazine-6-ylmethylene]-2-thioxo-thiazolidin-4-one [Example 4] | 0.65 µM
8 | 4-[2-(4-Oxo-2-thioxo-thiazolidin-5-ylidenemethyl)-7,8-dihydro-6H-5-oxa-9-aza-benzocycloheptene-9-carbonyl]-benzonitrile [Example 121] | 2.61 µM
9 | 5-(9-Cyclopentanecarbonyl-6,7,8,9-tetrahydro-5-oxa-9-aza-benzocyclohepten-2-ylmethylene)-2-thioxo-thiazolidin-4-one [Example 111] | 1 µM
10 | 5-(9-Cyclopropanecarbonyl-6,7,8,9-tetrahydro-5-oxa-9-aza-benzocyclohepten-2-ylmethylene)-2-thioxo-thiazolidin-4-one [Example 104] | 0.115 µM
11 | 5-[4-(7,7-Dimethyl-2-oxo-bicyclo[2.2.1]hept-1-ylmethanesulfonyl)-3,4-dihydro-2H-1,4-benzoxazin-6-ylmethylene]-2-thioxo-thiazolidin-4-one [Example 60] | 0.33 µM
12 | 5-[4-(Furan-2-carbonyl)-3,4-dihydro-2H-1,4-benzoxazin-6-ylmethylene]-2-thioxo-thiazolidin-4-one [Example 41] | 0.065 µM
13 | 5-[9-(2-Benzyloxy-acetyl)-6,7,8,9-tetrahydro-5-oxa-9-aza-benzocyclohepten-2-ylmethylene]-2-thioxo-thiazolidin-4-one [Example 119] | 1.65 µM
14 | 5-[9-(2-Thiophen-2-yl-acetyl)-6,7,8,9-tetrahydro-5-oxa-9-aza-benzocyclohepten-2-ylmethylene]-2-thioxo-thiazolidin-4-one [Example 112] | 1.14 µM
15 | 5-[9-(3,4-Dichloro-benzoyl)-6,7,8,9-tetrahydro-5-oxa-9-aza-benzocyclohepten-2-ylmethylene]-2-thioxo-thiazolidin-4-one [Example 114] | 1.38 µM
16 | 5-[9-(3-Phenyl-acryloyl)-6,7,8,9-tetrahydro-5-oxa-9-aza-benzocyclohepten-2-ylmethylene]-2-thioxo-thiazolidin-4-one [Example 115] | 1.52 µM
17 | 5-[9-(4-Hexyl-benzoyl)-6,7,8,9-tetrahydro-5-oxa-9-aza-benzocyclohepten-2-ylmethylene]-2-thioxo-thiazolidin-4-one [Example 126] | 4.2 µM
18 | 5-[9-(5-tert-Butyl-2-methyl-furan-3-carbonyl)-6,7,8,9-tetrahydro-5-oxa-9-aza-benzocyclohepten-2-ylmethylene]-2-thioxo-thiazolidin-4-one [Example 125] | 4.61 µM
